In series [1] the test system is L1210 leukemia cancer cells. Briefly: MTT proliferation assay, L1210 leukemia cancer cells. It is filed as cell-based. The note with it: 72 hr incubation, formulated in saline, 6 replicates. As for the experimental part: The L1210 leukemia cancer cells were grown in DMEM medium with 10% Donor Horse Serum, 1% Glutamine, 1% Non-essential Amino Acids, 0.1% Amphotericin, and 0.1% Gentamicin. Cells were diluted and seeded into 96-wells plate 2000 cells/ml, 400 cells/well, in a volume of 0.2 ml per well. The plates were incubated at 37° C. for 180 min. Following incubation, test substances were added at increasing concentrations from […] formulated in saline in 6 replicates each. The tested substances were Asp(Cytarabine).Acetate salt form, Asp(Cytarabine).hydrochloride salt form, Asp(Cytarabine).Methansulfonate salt form, Asp(Cytarabine).Benzenesulfonate salt form and Asp(Cytarabine).phosphate salt form. Test plates also included 6 replicate wells of saline as control. Plates were incubated at 37° C. for 72 hr prior to analysis. At the end of the exposure period, an MTT [3-(4,5-dimethylthiazole-2-yl)-2,5-diphenyl tetrazolium bromide] assay was performed. To each test well MTT at concentration of 5 mg/ml was added in a volume of 0.02 ml. Plates were incubated at 37° C. for 3 hr, then centrifuged at 3500 rpm for 6 minutes and the supernatants were aspirated. The pellets which contained MTT crystals were dissolved in 0.2 ml DMSO each. Absorbance was determined using ELISA reader at a wavelength of 570 nm.

A short description of series [2]: Solubility in water and organic solvents. It is filed as physicochemical.
A short description of series [3]: Stability (decomposition) in solvents. Conditions: rate is determined by heat and time. It is filed as physicochemical.
Series [4] concerns Molt-4, Human acute lymphoblastic leukemia. Kind of series: MTT proliferation assay, Molt-4 cells. Type of series: cell-based. Conditions: 3 replicates. On the technique in general: Tetrazolium assays rely on reduction of a dye to a coloured formazan, in cell work by metabolically active cells.
Series [5] has as its system HL-60, Human promyelocytic leukemia. Briefly: MTT proliferation assay, HL-60 cells. Type of series: cell-based. The note with it: 3 replicates.
The test system of series [6] is CCRF-SB, Human acute lymphoblastic leukemia. Kind of series: MTT proliferation assay, CCRF-SB cells. It is filed as cell-based. The note with it: 3 replicates.
For series [7], the system named is K562, Human chronic myelogenous leukemia. Briefly: MTT proliferation assay, K562 cells. It is filed as cell-based. The note with it: 3 replicates.
Series [8] relates to CCRF-CEM, Human acute lymphoblastic leukemia. Kind of series: MTT proliferation assay, CCRF-CEM cells. Type of series: cell-based. Conditions: 3 replicates.

The values that follow come from patent US12071450B2, “Salts of conjugates for cancer therapy” (Biosight Ltd., priority 2015, dated 2024).

Counter-ions that a name gives are not always drawn.

Usually IC50 stands for the midpoint of a concentration-inhibition curve. On to `Cl.NC(CC(=O)Nc1ccn([C@@H]2O[C@H](CO)C(O)C2O)c(=O)n1)C(=O)O` (some centres unmarked) [Asp(Cytarabine)•hydrochloride salt form, Asp(Cytarabine).HCl], for which the IC50 in series [1] was 240 nM. Also, in series [2] (most organic solvents: acetonitrile, ethers, ketones, halogenated solvents), the “solubility in organic solvents” value was “insoluble”. Besides, in series [2] (water), the solubility in water result is on record as “soluble”. Further, the “stability in strong polar aprotic solvents” value in series [3] (DMSO and DMF) is reported as “decompose”. For the same compound, in series [3] (water), the stability in water result is “decompose”.
In the case of Asp(Cytarabine).benzenesulfonate, in series [1], inhibition was half-maximal at 23 nM (IC50).
Turning to `NC(CC(=O)Nc1ccn([C@@H]2O[C@H](CO)C(O)C2O)c(=O)n1)C(=O)O` (some centres unmarked) [Asp(Cytarabine)•Acetate salt form, Asp(Cytarabine).Acetate], the half-inhibitory concentration (IC50) came out at 116 nM in series [1]; 12 nM in series [4]; 262 nM in series [5]; 19000 nM in series [6]; 355 nM in series [7]; 23 nM in series [8].
For the compound Asp(Cytarabine).methanesulfonate, half-maximal inhibition in series [1] (IC50) required 2 nM.
As for “Asp(Cytarabine).phosphate [Asp(Cytarabine)•phosphate salt form]”, in series [1], the IC50 was 34 nM.
